Tests used:
Settings in all cases: exposure time: 72 h
E31 [1] = patient-derived glioblastoma stem cells of proneural subtype; assay: phenotypic distance (Euclidean, principal components) from DMSO controls (arbitrary units); higher = stronger morphological change
E28 [2] = patient-derived glioblastoma stem cells of classical subtype; assay: as above
E57 [3] = patient-derived glioblastoma stem cells of mesenchymal subtype; assay: as above
FT3469 [4] = normal neural stem cell line; assay: as above
E21 [5] = patient-derived glioblastoma stem cells of mesenchymal subtype; assay: as above
E13 [6] = patient-derived glioblastoma stem cells of classical subtype; assay: as above
E34 [7] = patient-derived glioblastoma stem cells of proneural subtype; assay: as above
E31 [8] = assay: surviving fraction (nuclei count normalised to DMSO); higher = more cells surviving (less toxic)
E28 [9] = assay: as above
E57 [10] = assay: as above
FT3469 [11] = assay: as above
E21 [12] = assay: as above
E13 [13] = assay: as above
E34 [14] = assay: as above
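Wherever phenotypic distance (Euclidean, principal components) from DMSO controls is given: cell Painting imaging in 384-well plates, CellProfiler features reduced to at least 20 principal components, Euclidean distance versus same-plate DMSO vehicle wells (0.1% v/v), median over six images per well.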
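Wherever surviving fraction (nuclei count normalised to DMSO) is given: nuclei counted by high-content imaging of Hoechst-stained cells in laminin-coated 384-well plates, relative to 0.1% DMSO vehicle wells, with staurosporine as cell-death control.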

Which phenotypic distance (E31 [1]; 4.1 nM) does the source give for `C[C@@H](Oc1cc(-c2cnn(C3CCNCC3)c2)cnc1N)c1c(Cl)ccc(F)c1Cl` [Crizotinib] here?
The phenotypic distance was 0.339.

And the phenotypic distance (E31 [1]; 12.3 nM)?
Its phenotypic distance is 0.524.

And the phenotypic distance (E31 [1]; 37 nM)?
Its phenotypic distance is 0.734.

And the phenotypic distance (E31 [1]; 111.1 nM)?
The phenotypic distance was 0.728.

And the phenotypic distance (E31 [1]; 333.3 nM)?
The phenotypic distance was 0.762.

And the phenotypic distance (E31 [1]; 1000 nM)?
Its phenotypic distance is 1.01.

And the phenotypic distance (E31 [1]; 3000 nM)?
Its phenotypic distance is 3.13.

And the phenotypic distance (E28 [2]; 4.1 nM)?
Its phenotypic distance is 0.935.

What about the phenotypic distance (E28 [2]; 12.3 nM) of the same compound?
The phenotypic distance was 0.741.

And the phenotypic distance (E28 [2]; 37 nM)?
Its phenotypic distance is 1.91.

And the phenotypic distance (E28 [2]; 111.1 nM)?
The phenotypic distance was 0.725.

What about the phenotypic distance (E28 [2]; 333.3 nM) of the same compound?
The phenotypic distance was 0.457.

What about the phenotypic distance (E28 [2]; 1000 nM) of the same compound?
The phenotypic distance was 0.886.

And the phenotypic distance (E28 [2]; 3000 nM)?
Its phenotypic distance is 2.74.

What about the phenotypic distance (E57 [3]; 4.1 nM) of the same compound?
Its phenotypic distance is 0.221.

What about the phenotypic distance (E57 [3]; 12.3 nM) of the same compound?
The phenotypic distance was 1.2.

What about the phenotypic distance (E57 [3]; 37 nM) of the same compound?
The phenotypic distance was 0.43.

And the phenotypic distance (E57 [3]; 111.1 nM)?
Its phenotypic distance is 0.517.

What about the phenotypic distance (E57 [3]; 333.3 nM) of the same compound?
The phenotypic distance was 0.355.

What about the phenotypic distance (E57 [3]; 1000 nM) of the same compound?
The phenotypic distance was 0.883.

What about the phenotypic distance (E57 [3]; 3000 nM) of the same compound?
The phenotypic distance was 4.09.

And the phenotypic distance (FT3469 [4]; 4.1 nM)?
The phenotypic distance was 0.558.

What about the phenotypic distance (FT3469 [4]; 12.3 nM) of the same compound?
The phenotypic distance was 0.592.

What about the phenotypic distance (FT3469 [4]; 37 nM) of the same compound?
The phenotypic distance was 0.496.

And the phenotypic distance (FT3469 [4]; 111.1 nM)?
The phenotypic distance was 0.573.

What about the phenotypic distance (FT3469 [4]; 333.3 nM) of the same compound?
Its phenotypic distance is 0.58.

What about the phenotypic distance (FT3469 [4]; 1000 nM) of the same compound?
Its phenotypic distance is 0.774.

And the phenotypic distance (FT3469 [4]; 3000 nM)?
The phenotypic distance was 2.09.

What about the phenotypic distance (E21 [5]; 4.1 nM) of the same compound?
The phenotypic distance was 0.599.

What about the phenotypic distance (E21 [5]; 12.3 nM) of the same compound?
Its phenotypic distance is 1.58.

What about the phenotypic distance (E21 [5]; 37 nM) of the same compound?
Its phenotypic distance is 0.706.

What about the phenotypic distance (E21 [5]; 111.1 nM) of the same compound?
The phenotypic distance was 0.783.

And the phenotypic distance (E21 [5]; 333.3 nM)?
Its phenotypic distance is 0.751.

And the phenotypic distance (E21 [5]; 1000 nM)?
The phenotypic distance was 1.37.

And the phenotypic distance (E21 [5]; 3000 nM)?
Its phenotypic distance is 3.3.

What about the phenotypic distance (E13 [6]; 4.1 nM) of the same compound?
The phenotypic distance was 0.499.

And the phenotypic distance (E13 [6]; 12.3 nM)?
Its phenotypic distance is 0.452.

And the phenotypic distance (E13 [6]; 37 nM)?
The phenotypic distance was 0.936.

What about the phenotypic distance (E13 [6]; 111.1 nM) of the same compound?
The phenotypic distance was 0.626.

What about the phenotypic distance (E13 [6]; 333.3 nM) of the same compound?
The phenotypic distance was 0.58.

And the phenotypic distance (E13 [6]; 1000 nM)?
Its phenotypic distance is 1.09.

What about the phenotypic distance (E13 [6]; 3000 nM) of the same compound?
Its phenotypic distance is 3.75.

And the phenotypic distance (E34 [7]; 4.1 nM)?
The phenotypic distance was 0.825.

And the phenotypic distance (E34 [7]; 12.3 nM)?
The phenotypic distance was 0.797.

And the phenotypic distance (E34 [7]; 37 nM)?
The phenotypic distance was 0.989.

What about the phenotypic distance (E34 [7]; 111.1 nM) of the same compound?
Its phenotypic distance is 0.934.

What about the phenotypic distance (E34 [7]; 333.3 nM) of the same compound?
Its phenotypic distance is 0.571.

What about the phenotypic distance (E34 [7]; 1000 nM) of the same compound?
Its phenotypic distance is 1.16.

And the phenotypic distance (E34 [7]; 3000 nM)?
Its phenotypic distance is 2.7.

And the surviving fraction (E31 [8]; 4.1 nM)?
Its surviving fraction is 0.998.

What about the surviving fraction (E31 [8]; 12.3 nM) of the same compound?
Its surviving fraction is 1.05.

What about the surviving fraction (E31 [8]; 37 nM) of the same compound?
Its surviving fraction is 0.891.

And the surviving fraction (E31 [8]; 111.1 nM)?
The surviving fraction was 0.884.

What about the surviving fraction (E31 [8]; 333.3 nM) of the same compound?
Its surviving fraction is 1.13.

What about the surviving fraction (E31 [8]; 1000 nM) of the same compound?
Its surviving fraction is 0.96.

What about the surviving fraction (E31 [8]; 3000 nM) of the same compound?
The surviving fraction was 0.472.

What about the surviving fraction (E28 [9]; 4.1 nM) of the same compound?
The surviving fraction was 1.02.

What about the surviving fraction (E28 [9]; 12.3 nM) of the same compound?
The surviving fraction was 0.941.

What about the surviving fraction (E28 [9]; 37 nM) of the same compound?
Its surviving fraction is 0.83.

What about the surviving fraction (E28 [9]; 111.1 nM) of the same compound?
The surviving fraction was 0.923.

What about the surviving fraction (E28 [9]; 333.3 nM) of the same compound?
The surviving fraction was 0.96.

And the surviving fraction (E28 [9]; 1000 nM)?
Its surviving fraction is 0.837.

And the surviving fraction (E28 [9]; 3000 nM)?
The surviving fraction was 0.326.

And the surviving fraction (E57 [10]; 4.1 nM)?
The surviving fraction was 1.03.

And the surviving fraction (E57 [10]; 12.3 nM)?
The surviving fraction was 0.937.

And the surviving fraction (E57 [10]; 37 nM)?
The surviving fraction was 1.01.

And the surviving fraction (E57 [10]; 111.1 nM)?
Its surviving fraction is 0.957.

And the surviving fraction (E57 [10]; 333.3 nM)?
Its surviving fraction is 1.04.

And the surviving fraction (E57 [10]; 1000 nM)?
Its surviving fraction is 0.857.

And the surviving fraction (E57 [10]; 3000 nM)?
The surviving fraction was 0.477.

What about the surviving fraction (FT3469 [11]; 4.1 nM) of the same compound?
Its surviving fraction is 0.854.

What about the surviving fraction (FT3469 [11]; 12.3 nM) of the same compound?
Its surviving fraction is 1.03.

And the surviving fraction (FT3469 [11]; 37 nM)?
The surviving fraction was 1.09.

And the surviving fraction (FT3469 [11]; 111.1 nM)?
The surviving fraction was 1.09.

And the surviving fraction (FT3469 [11]; 333.3 nM)?
Its surviving fraction is 0.941.

And the surviving fraction (FT3469 [11]; 1000 nM)?
Its surviving fraction is 0.891.

What about the surviving fraction (FT3469 [11]; 3000 nM) of the same compound?
Its surviving fraction is 0.574.

What about the surviving fraction (E21 [12]; 4.1 nM) of the same compound?
Its surviving fraction is 0.907.

What about the surviving fraction (E21 [12]; 12.3 nM) of the same compound?
Its surviving fraction is 0.826.

What about the surviving fraction (E21 [12]; 37 nM) of the same compound?
Its surviving fraction is 1.02.

And the surviving fraction (E21 [12]; 111.1 nM)?
The surviving fraction was 0.883.

And the surviving fraction (E21 [12]; 333.3 nM)?
The surviving fraction was 0.986.

What about the surviving fraction (E21 [12]; 1000 nM) of the same compound?
The surviving fraction was 0.78.

And the surviving fraction (E21 [12]; 3000 nM)?
Its surviving fraction is 0.472.

What about the surviving fraction (E13 [13]; 4.1 nM) of the same compound?
The surviving fraction was 0.978.

What about the surviving fraction (E13 [13]; 12.3 nM) of the same compound?
The surviving fraction was 0.948.

What about the surviving fraction (E13 [13]; 37 nM) of the same compound?
The surviving fraction was 0.972.

What about the surviving fraction (E13 [13]; 111.1 nM) of the same compound?
Its surviving fraction is 0.863.

And the surviving fraction (E13 [13]; 333.3 nM)?
Its surviving fraction is 0.881.

And the surviving fraction (E13 [13]; 1000 nM)?
Its surviving fraction is 0.849.

What about the surviving fraction (E13 [13]; 3000 nM) of the same compound?
Its surviving fraction is 0.482.

And the surviving fraction (E34 [14]; 4.1 nM)?
The surviving fraction was 0.973.

And the surviving fraction (E34 [14]; 12.3 nM)?
The surviving fraction was 0.985.

What about the surviving fraction (E34 [14]; 37 nM) of the same compound?
Its surviving fraction is 0.786.

What about the surviving fraction (E34 [14]; 111.1 nM) of the same compound?
The surviving fraction was 1.1.

And the surviving fraction (E34 [14]; 333.3 nM)?
Its surviving fraction is 0.933.

And the surviving fraction (E34 [14]; 1000 nM)?
The surviving fraction was 0.88.

What about the surviving fraction (E34 [14]; 3000 nM) of the same compound?
The surviving fraction was 0.565.
